# Experimental data published in patent US10919877B2, “Multifunctional inhibitors of MEK/PI3K and mTOR/MEK/PI3K biological pathways and therapeutic methods using the same” (THE REGENTS OF THE UNIVERSITY OF MICHIGAN, priority 2016, dated 2021).
# Entries after “also recorded” stand apart in the source; their conditions may differ. Read-outs that look alike come from different tables or passages of the source.
# Experiments:
# [1] = system: A375 (melanoma), D54 (glioma), CT26 colorectal cancer, A2058 (melanoma) cell lines; experiment: Concurrent inhibition in tumor cell lines (multifunctional inhibitors); assay type: cell-based
# Source text: The synthesis of another series of single entity, multifunctional inhibitors achieved by covalent linking of structural analogs of a PI3K inhibitor mTOR inhibitor, and an MEK inhibitor is also disclosed.
# [2] = system: melanoma tumors A2058 and A357; experiment: Tumor growth of subcutaneous melanoma tumors; assay type: in vivo, mice; settings: 400 mg/kg oral gavage, 14 days, vs vehicle, listed as ST-162, 400 mg/kg
# Experimental: (§1) In preliminary studies, several mouse models were tested for therapeutic efficacy using oral administration of ST-162. Athymic nude Foxn1 nu mice were used to evaluate oncogenic target modulation activity in vivo. Mice bearing intracerebral D54 tumors, subcutaneous colon tumors (CT26) and subcutaneous melanoma (A375 and A2058) tumors were treated with either vehicle control or 400 mg/kg of compound ST-162 by oral gavage for 14-30+ days.
# In FIG. 9, compound ST-162 was administered for 14 days beginning when subcutaneous melanoma tumors A2058 and A357 were measurable by caliper and MRI and tumor volumes were measured over time and compared to vehicle controls.
# Akt phosphorylation = experiment: In vivo PI3K inhibition in flank D54 and A549 tumor bearing mice (Western blot)
# MEK1 = molecular target: T1, MEK1 (Homo sapiens, UniProt Q02750); experiment: In vitro MEK1 inhibition assay (Kinase-Glo luminescent kinase assay); assay type: biochemical; settings: average of three experiments each conducted in duplicate
# T1 construct: purchased Sigma-Aldrich
# Experimental: In Vitro MEK1 Inhibition Assays.
# In vitro MEK1 inhibition activity of inhibitor analogs were determined using Kinase-Glo luminescent kinase assay kits from Promega (WI, USA) per manufacturer's instructions. […] Briefly, series of compound dilutions were added in 96-well plates, followed by MEK1, Erk2, and ATP solutions. Kinase reactions were run at 30° C. for 30 minutes. Equal volumes of Kinase-Glo solution were then added, and reactions were incubated at room temperature for a further 30 minutes. Bioluminescence signals were acquired with an Envision multilabel reader from Perkin Elmer. Assays were conducted in triplicate with various inhibitor concentrations each run in duplicate. IC50 data were calculated using GraphPad Prism software (version 5.0, La Jolla, Calif.).
# A549 lung tumor cells = experiment: Cell viability, AlamarBlue assay; assay type: cell-based, human; settings: dose dependence
# [3] = system: pErk1/2 in A549 and D54 cells; experiment: Cellular MEK1 inhibition, Western blot of pErk1/2 in cultured tumor cells; assay type: cell-based, human; settings: A549 and D54 cell lines, 1 hour
# Experimental: Western Blot Analysis. […] Cells were washed with phosphatebuffered saline (PBS) and lysed with NP-40 lysis buffer (1% NP40, 150 mM NaCl, and 25 mM Tris, pH 8.0) supplemented with protease inhibitors (Complete protease inhibitor cocktail, Roche, Basel, Switzerland) and phosphatase inhibitors (PhosSTOP, Roche, Basel, Switzerland). […] Proteins were transferred to 0.2 μm nitrocellulose membranes (Invitrogen, CA). Membranes were incubated overnight at 4° C. with primary antibodies after blocking, followed by incubation with appropriate horseradish peroxidase (HRP) conjugated secondary antibody at room temperature for 1 hour. ECL-Plus was used to detect the activity of peroxidase according to the manufacturer's protocol (Amersham Pharmacia, Uppsala, Sweden).
# [4] = system: pAkt in A549 and D54 cells; experiment: Cellular PI3K inhibition, Western blot of pAkt in cultured tumor cells; assay type: cell-based, human; settings: 1 hour
# Experimental: The in vitro MEK1 and PI3K inhibitory activity of these series of compounds was also assessed in cultured tumor cells (D54, A549). Cellular efficacy of MEK1 and PI3K inhibition by inhibitor compounds was measured by changes in phosphorylation of pErk1/2 and pAkt, respectively. […] Cells were incubated in the presence of indicated compounds for 1 hour and lysates probed with specific antibodies against pAKT and pERK 1/2 and compared with vehicle control (DMSO). A549 (FIG. 2A) and D54 (FIG. 2B) cells were treated with inhibitors at the indicated concentrations for 1 hour and subjected to Western blot analysis.
# Western Blot Analysis. Cells were seeded in six-well dishes 24 hours prior to treatment and incubated with the respective inhibitor compound solutions for 1 h. Cells were washed with phosphatebuffered saline (PBS) and lysed with NP-40 lysis buffer (1% NP40, 150 mM NaCl, and 25 mM Tris, pH 8.0) supplemented with protease inhibitors (Complete protease inhibitor cocktail, Roche, Basel, Switzerland) and phosphatase inhibitors (PhosSTOP, Roche, Basel, Switzerland). Concentration of protein was determined using Lowry assays (Bio-Rad, Hercules, Calif.), and equal amounts of whole cell protein lysate were loaded in each lane and resolved using 4-12% gradient Bis-Tris gel (Invitrogen, CA). Proteins were transferred to 0.2 μm nitrocellulose membranes (Invitrogen, CA). Membranes were incubated overnight at 4° C. with primary antibodies after blocking, followed by incubation with appropriate horseradish peroxidase (HRP) conjugated secondary antibody at room temperature for 1 hour. ECL-Plus was used to detect the activity of peroxidase according to the manufacturer's protocol (Amersham Pharmacia, Uppsala, Sweden). Antibodies raised against phospho-p44/42 MAPK (Erk1/2) (Thr202/Tyr204), pAKT(5473), phospho-p70 S6K* and total ERK, AKT antibodies were purchased from Cell Signaling Technology (Beverly, Mass., USA), and anti-β actin (conjugated with HRP) was purchased from Abcam (Cambridge, Mass., USA). Secondary HRP antibodies were purchased from Jackson ImmunoResearch (St. Louis, Mo., USA).
# PI3Kα = molecular target: T2, PI3Kα (Homo sapiens, UniProt P42336); experiment: PI3K subtype enzyme inhibition; assay type: biochemical
# T2 construct: purchased Life Technologies (assay run by the vendor)
# MEK1 and PI3K activities [5] = experiment: In vivo MEK1 and PI3K inhibition in subcutaneous melanoma tumors A357 and A2058 (Western blot); design: species or system mice; settings: s.q. melanoma A357 and A2058, 400 mg/kg oral gavage, 2 hours
# Experimental: Mice bearing s.q. melanoma tumors were treated with either vehicle or 400 mg/kg of ST-162 or ST-168 by oral gavage at 2 hours prior to sacrifice.
# PI3Kβ = molecular target: T3, PI3Kβ (Homo sapiens, UniProt P42338); experiment: PI3K subtype enzyme inhibition; assay type: biochemical
# T3 construct: purchased Life Technologies (assay run by the vendor)
# PI3Kγ [6] = molecular target: T4, PI3Kγ (Homo sapiens, UniProt P48736); experiment: PI3K subtype enzyme inhibition; assay type: biochemical
# T4 construct: purchased Life Technologies (assay run by the vendor)
# [7] = system: intracerebral D54 glioma tumors; experiment: Survival of mice bearing intracerebral D54 tumors; assay type: in vivo; settings: intracerebral D54, 400 mg/kg oral gavage, vs vehicle control; listed as ST-162
# Experimental: as §1
# MEK1 and PI3K activities [8] = experiment: In vivo MEK1 and PI3K inhibition in subcutaneous colon tumor CT26 (Western blot); design: species or system mice; settings: subcutaneous CT26, 400 mg/kg oral gavage, 2 hours
# Experimental: Mice bearing subcutaneous colon tumors were treated with either vehicle or 400 mg/kg of ST-162 or ST-168 by oral gavage at 2 hours prior to sacrifice. The known MEK inhibitor 901 and PI3K inhibitors were also evaluated in this study.
# D54 glioma cells = experiment: Cell viability, AlamarBlue assay; assay type: cell-based, human; settings: dose dependence
# ERK1/2 phosphorylation = experiment: In vivo MEK1 inhibition in flank D54 and A549 tumor bearing mice (Western blot)
# Experimental: Four athymic nude Foxn1nu mice were used to evaluate oncogenic target modulation activity in vivo.
# In Vivo Evaluation of Inhibitor Efficacy.
# Each injectate contained a total volume of 200 μL of cell suspension in 50% RPMI medium mixed with 50% BD Matrigel basement membrane matrix (Becton, Dickinson and Company, East Rutherford, N.J.). […] Tumor tissues were collected from both vehicle and drug-treated groups and subjected to Western blot analysis as previously described.
# colon tumors CT-26 = experiment: Tumor growth of subcutaneous colon tumors; assay type: in vivo, mice; settings: for tumor growth: subcutaneous CT26, 400 mg/kg oral gavage, 14 days, vs vehicle
# Experimental: as §1
# In FIG. 10, compound ST-162 was administered for 14 days beginning when subcutaneous colon tumors CT-26 were measurable by caliper and MRI and tumor volumes were measured over time and compared to vehicle controls.
# In FIG. 11, ST-162 was administered for 14 days beginning when subcutaneous colon tumors CT-26 were measurable by caliper and MRI and tumor volumes were measured over time and compared to vehicle controls. At day 14, two tumors were removed and compared for size and weight.
# PI3K = PI3K (Homo sapiens, UniProt P42336); experiment: In vitro PI3K inhibition assay (Adapta TR-FRET); assay type: biochemical; settings: average of three experiments each conducted in duplicate
# Experimental: In Vitro PI3K Inhibition Assays.
# Quantitation of PI3K lipid kinase activity was carried out by Life Technologies (Madison, Wis.) with purified enzyme using the fluorescence-based Adapta TR-FRET assay protocol. Assays were conducted in triplicate with various inhibitor concentrations (0.1 nM to 10 μM).
# MEK1 and PI3K activities [9] = experiment: In vivo MEK1 and PI3K inhibition in intracerebral D54 glioma bearing mice (Western blot); settings: intracerebral D54, 400 mg/kg oral gavage, 2 hours
# Experimental: Mice bearing i.c. D54 tumors were treated with either vehicle or 400 mg/kg of ST-162 or ST-168 by oral gavage at 2 hours prior to sacrifice.
# PI3Kγ [10] = molecular target: T4, PI3Kγ; settings: second value in parentheses, unexplained; cited from earlier work
# mTOR/MEK1/PI3K = experiment: In vivo inhibition in A375 flank tumor (Western blot); design: species or system mouse; settings: oral, 2 hour postadministration
# Source text: (§2) The synthesis of another series of single entity, multifunctional inhibitors achieved by covalent linking of structural analogs of a PI3K inhibitor mTOR inhibitor, and an MEK inhibitor is also disclosed. […] […].
# PI3Kδ = molecular target: T5, PI3Kδ (Homo sapiens, UniProt O00329); experiment: PI3K subtype enzyme inhibition; assay type: biochemical
# T5 construct: purchased Life Technologies (assay run by the vendor)
# A375 melanoma tumor = experiment: In vivo efficacy in A375 melanoma tumor bearing mice
# Source text: as §2
# [11] = D54 and A549 tumors, compound 14: 375 mg/kg oral gavage, 2 h, 375 mg/kg
# [12] = oral administration, 2 h postadministration, Western blot
# [13] = mean ± SEM, read-out: PI3K Subtype Inhibition Activity PI3Kα
# [14] = mean ± SEM, read-out: PI3K Subtype Inhibition Activity PI3Kβ
# [15] = read-out: PI3K Subtype Enzyme Inhibition Data IC50 PI3Kβ
# [16] = mean ± SEM, read-out: PI3K Subtype Inhibition Activity PI3Kγ
# [17] = read-out: PI3K Subtype Enzyme Inhibition Data IC50 PI3Kγ
# T4 sequence (P48736 whole entry): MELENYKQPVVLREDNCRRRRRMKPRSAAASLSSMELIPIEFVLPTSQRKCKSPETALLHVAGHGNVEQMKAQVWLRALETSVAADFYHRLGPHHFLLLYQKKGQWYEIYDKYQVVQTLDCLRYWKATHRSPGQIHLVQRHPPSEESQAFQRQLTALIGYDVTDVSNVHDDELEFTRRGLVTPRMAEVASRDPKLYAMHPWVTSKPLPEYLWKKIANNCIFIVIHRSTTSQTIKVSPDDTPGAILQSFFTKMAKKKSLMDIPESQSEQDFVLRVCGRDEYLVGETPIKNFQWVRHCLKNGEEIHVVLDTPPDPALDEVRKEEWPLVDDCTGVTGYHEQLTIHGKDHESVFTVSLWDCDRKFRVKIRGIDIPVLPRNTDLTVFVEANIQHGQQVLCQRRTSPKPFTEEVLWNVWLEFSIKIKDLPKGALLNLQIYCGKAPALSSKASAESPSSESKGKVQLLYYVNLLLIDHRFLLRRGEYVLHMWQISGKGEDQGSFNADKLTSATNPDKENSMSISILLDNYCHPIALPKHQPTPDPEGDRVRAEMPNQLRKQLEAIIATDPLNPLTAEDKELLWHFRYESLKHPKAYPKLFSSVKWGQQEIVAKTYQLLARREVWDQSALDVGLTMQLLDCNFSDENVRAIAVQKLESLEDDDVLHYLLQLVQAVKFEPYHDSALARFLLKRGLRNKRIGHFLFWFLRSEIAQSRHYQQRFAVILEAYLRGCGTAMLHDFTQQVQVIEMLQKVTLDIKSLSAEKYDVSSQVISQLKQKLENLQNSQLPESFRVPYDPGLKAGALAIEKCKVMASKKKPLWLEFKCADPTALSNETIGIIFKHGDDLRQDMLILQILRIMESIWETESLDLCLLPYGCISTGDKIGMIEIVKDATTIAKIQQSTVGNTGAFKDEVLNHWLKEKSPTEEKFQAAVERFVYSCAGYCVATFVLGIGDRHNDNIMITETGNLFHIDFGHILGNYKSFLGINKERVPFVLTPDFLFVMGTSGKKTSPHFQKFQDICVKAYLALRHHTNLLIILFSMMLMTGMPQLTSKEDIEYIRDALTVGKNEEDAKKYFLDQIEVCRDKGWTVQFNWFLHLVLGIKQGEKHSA
# T2 sequence (P42336 whole entry): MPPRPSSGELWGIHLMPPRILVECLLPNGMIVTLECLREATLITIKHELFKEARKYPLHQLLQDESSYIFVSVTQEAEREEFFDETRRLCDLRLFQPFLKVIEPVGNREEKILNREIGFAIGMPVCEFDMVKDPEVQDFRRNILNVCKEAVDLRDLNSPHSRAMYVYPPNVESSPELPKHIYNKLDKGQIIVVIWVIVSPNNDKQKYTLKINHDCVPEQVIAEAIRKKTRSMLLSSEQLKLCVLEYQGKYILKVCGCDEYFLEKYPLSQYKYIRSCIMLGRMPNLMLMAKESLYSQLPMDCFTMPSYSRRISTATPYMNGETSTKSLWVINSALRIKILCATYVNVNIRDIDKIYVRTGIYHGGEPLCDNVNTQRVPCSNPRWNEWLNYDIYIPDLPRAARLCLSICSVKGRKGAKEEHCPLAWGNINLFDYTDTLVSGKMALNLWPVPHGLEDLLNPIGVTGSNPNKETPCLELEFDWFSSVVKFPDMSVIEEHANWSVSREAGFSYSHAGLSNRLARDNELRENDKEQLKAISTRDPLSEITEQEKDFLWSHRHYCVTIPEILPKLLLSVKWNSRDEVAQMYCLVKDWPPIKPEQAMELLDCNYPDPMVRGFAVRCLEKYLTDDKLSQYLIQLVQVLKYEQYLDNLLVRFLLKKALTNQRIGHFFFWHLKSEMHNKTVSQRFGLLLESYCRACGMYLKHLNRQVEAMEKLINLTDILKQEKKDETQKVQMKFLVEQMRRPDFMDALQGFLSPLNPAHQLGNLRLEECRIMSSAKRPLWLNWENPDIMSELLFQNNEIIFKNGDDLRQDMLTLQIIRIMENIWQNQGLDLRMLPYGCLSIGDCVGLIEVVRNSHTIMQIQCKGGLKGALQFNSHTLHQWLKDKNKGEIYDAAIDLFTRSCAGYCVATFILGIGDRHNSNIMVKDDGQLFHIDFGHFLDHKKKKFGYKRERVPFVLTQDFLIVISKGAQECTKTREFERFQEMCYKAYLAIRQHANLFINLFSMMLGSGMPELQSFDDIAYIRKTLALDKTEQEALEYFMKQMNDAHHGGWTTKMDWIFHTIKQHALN
# T2 sequence (P27986 whole entry partner): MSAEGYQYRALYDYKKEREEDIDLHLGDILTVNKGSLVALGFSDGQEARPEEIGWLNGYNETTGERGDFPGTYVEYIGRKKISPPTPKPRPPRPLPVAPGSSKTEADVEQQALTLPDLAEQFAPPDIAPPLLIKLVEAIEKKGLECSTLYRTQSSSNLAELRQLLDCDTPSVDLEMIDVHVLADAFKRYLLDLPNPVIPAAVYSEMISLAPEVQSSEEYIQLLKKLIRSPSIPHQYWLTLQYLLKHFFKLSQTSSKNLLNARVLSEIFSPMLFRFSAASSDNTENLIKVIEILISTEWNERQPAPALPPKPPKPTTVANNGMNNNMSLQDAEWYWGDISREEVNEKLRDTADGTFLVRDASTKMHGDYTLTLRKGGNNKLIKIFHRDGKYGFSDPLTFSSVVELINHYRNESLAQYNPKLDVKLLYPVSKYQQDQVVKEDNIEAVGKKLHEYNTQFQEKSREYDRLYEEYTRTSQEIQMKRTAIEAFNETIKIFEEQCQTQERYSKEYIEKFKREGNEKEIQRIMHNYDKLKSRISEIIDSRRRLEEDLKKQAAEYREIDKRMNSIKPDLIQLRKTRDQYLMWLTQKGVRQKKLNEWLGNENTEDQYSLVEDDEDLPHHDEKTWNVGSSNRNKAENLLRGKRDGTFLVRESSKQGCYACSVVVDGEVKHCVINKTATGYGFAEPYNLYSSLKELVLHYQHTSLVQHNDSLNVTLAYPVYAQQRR
# T3 sequence (P42338 whole entry): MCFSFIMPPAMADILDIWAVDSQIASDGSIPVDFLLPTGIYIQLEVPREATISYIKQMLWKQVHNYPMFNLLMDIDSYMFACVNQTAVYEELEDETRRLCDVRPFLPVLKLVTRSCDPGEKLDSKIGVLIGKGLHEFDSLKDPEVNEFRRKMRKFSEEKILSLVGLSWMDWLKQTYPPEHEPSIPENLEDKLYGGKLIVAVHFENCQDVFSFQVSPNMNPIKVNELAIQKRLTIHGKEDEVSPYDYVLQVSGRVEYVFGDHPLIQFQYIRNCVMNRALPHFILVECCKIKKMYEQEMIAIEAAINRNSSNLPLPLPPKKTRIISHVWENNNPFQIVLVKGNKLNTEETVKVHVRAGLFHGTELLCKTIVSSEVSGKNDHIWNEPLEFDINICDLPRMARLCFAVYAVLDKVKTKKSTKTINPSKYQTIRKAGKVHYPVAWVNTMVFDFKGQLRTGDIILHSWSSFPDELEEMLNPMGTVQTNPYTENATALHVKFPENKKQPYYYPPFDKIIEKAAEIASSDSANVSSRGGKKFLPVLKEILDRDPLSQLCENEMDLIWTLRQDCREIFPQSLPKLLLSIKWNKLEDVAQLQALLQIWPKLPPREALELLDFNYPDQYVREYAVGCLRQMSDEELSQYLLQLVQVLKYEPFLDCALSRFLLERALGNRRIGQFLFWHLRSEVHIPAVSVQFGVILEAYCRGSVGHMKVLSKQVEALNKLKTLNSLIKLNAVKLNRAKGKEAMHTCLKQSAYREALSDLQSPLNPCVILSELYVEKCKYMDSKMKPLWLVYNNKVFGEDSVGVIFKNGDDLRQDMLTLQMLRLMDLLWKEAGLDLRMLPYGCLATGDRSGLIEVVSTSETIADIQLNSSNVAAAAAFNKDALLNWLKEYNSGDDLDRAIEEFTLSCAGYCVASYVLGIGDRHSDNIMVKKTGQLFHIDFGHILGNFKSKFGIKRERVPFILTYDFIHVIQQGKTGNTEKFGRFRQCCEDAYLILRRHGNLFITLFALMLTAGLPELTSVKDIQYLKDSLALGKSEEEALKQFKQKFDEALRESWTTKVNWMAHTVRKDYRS
# T3 sequence (P27986 whole entry partner): as the sequence (P27986 whole entry partner) above
# T5 sequence (O00329 whole entry): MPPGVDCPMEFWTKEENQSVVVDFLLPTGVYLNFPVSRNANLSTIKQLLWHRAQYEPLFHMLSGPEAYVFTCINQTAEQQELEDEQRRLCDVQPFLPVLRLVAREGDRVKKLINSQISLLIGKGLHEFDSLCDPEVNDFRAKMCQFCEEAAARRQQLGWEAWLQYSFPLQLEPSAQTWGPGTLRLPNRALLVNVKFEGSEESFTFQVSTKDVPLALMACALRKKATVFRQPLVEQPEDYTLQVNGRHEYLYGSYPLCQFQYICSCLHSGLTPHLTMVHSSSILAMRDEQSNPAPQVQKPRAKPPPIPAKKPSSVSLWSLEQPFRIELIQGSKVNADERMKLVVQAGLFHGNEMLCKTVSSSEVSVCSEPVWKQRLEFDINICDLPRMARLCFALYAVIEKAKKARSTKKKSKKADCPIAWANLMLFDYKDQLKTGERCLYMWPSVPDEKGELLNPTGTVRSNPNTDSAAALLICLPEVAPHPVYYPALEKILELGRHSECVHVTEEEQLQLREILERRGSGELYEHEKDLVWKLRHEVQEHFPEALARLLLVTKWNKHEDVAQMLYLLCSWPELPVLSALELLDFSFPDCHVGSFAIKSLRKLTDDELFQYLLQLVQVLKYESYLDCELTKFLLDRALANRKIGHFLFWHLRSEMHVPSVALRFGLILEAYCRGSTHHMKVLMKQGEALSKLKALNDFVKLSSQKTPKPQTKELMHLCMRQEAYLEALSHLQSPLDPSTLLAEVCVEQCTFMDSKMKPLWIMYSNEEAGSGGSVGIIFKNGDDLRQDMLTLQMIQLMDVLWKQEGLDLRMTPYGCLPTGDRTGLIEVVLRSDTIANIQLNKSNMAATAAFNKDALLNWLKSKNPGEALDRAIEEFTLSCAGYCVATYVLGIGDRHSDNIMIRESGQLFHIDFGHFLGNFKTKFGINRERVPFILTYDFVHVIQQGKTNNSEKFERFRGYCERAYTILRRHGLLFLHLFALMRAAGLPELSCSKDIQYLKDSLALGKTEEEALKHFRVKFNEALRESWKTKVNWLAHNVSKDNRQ
# T5 sequence (P27986 whole entry partner): as the sequence (P27986 whole entry partner) above
smiles,measurement,setting,value
O=C(NOCCOCCOCCOCCN1CCN(c2nc(N3CCOCC3)nc(-n3c(C(F)F)nc4ccccc43)n2)CC1)c1ccc(F)c(F)c1Nc1ccc(I)cc1F [Compound 14],Concurrent inhibition in tumor cell lines,[1],Concurrent inhibition was demonstrated
same,tumor growth,[2],significant tumor growth delays; also recorded: significant reduction of tumor growth
same,phosphorylation of Akt (PI3K activity) in excised tumor tissue,Akt phosphorylation; [11],inhibited phosphorylation; also recorded: significant inhibition
same,inhibition of tumor Akt phosphorylation,Akt phosphorylation; [12],67%
same,IC50,MEK1,0.15 nM
same,cell viability,A549 lung tumor cells,as effective as the combination of ZSTK474 and PD0325901
same,MEK inhibition in cells,[3],inhibition was demonstrated; also recorded: most pronounced
same,PI3K inhibition in cells,"[4]; A549 and D54 cell lines, Western blot",inhibition was demonstrated; also recorded: most pronounced
same,PI3K activity indicated by level of pAKT,"[4]; cultured A549 cells, Western blot vs DMSO",high potency in inhibiting PI3K activity
same,IC50,PI3Kα; [13],467 ± 9 nM
same,MEK1 and PI3K activities in tumor relative to vehicle control,MEK1 and PI3K activities [5],successfully modulated both MEK1 and PI3K activities
same,IC50,PI3Kβ; [14],4070 ± 290 nM
same,IC50,PI3Kβ; [15],4070 ± 290 nM
same,IC50,PI3Kγ [6]; [16],5800 ± 511 nM
same,IC50,PI3Kγ [6]; [17],5800 ± 511 nM
same,overall survival,[7],improved animal survival; also recorded: significant improvement (P=0.0054)
same,MEK1 and PI3K activities in tumor relative to vehicle control,MEK1 and PI3K activities [8],successfully modulated MEK1 and PI3K activities
same,cell viability,D54 glioma cells,as effective as the combination of ZSTK474 and PD0325901
same,phosphorylation of ERK1/2 (MEK1 activity) in excised tumor tissue,ERK1/2 phosphorylation; [11],inhibited phosphorylation; also recorded: significant inhibition
same,inhibition of tumor ERK1/2 phosphorylation,ERK1/2 phosphorylation; [12],95%
same,size of excised tumors,"colon tumors CT-26; CT-26, day 14, vs vehicle control tumors",smaller in volume
same,tumor growth,colon tumors CT-26; listed as MV4-162,significant reduction of tumor growth
same,tumor growth,colon tumors CT-26; listed as ST-162,significant tumor growth delays
same,IC50,PI3K,191 to 341 nM
same,MEK1 and PI3K activities in tumor relative to vehicle control,MEK1 and PI3K activities [9],successfully modulated both MEK1 and PI3K activities
"COc1ncc(-c2ccc3nccc(-c4ccnnc4)c3c2)cc1NS(=O)(=O)c1ccc(F)cc1F [GSK 458, reference compound]",IC50,"PI3Kγ [6]; ST-182 and intermediates, read-out: PI3Kγ IC50",0.83 ± 0.1 nM
same,IC50,PI3Kγ [10],0.06 nM
O=C(NOCCOCCOCCOCCC(=O)N1CCN(c2nc(N3CCOCC3)nc(-n3c(C(F)F)nc4ccccc43)n2)CC1)c1ccc(F)c(F)c1Nc1ccc(I)cc1F [ST-168],inhibition of mTOR/MEK1/PI3K in tumor tissue,mTOR/MEK1/PI3K,combined inhibition of mTOR/MEK1/PI3K was achieved
same,Concurrent inhibition in tumor cell lines,[1],Concurrent inhibition was demonstrated
same,IC50,"PI3Kδ; mean ± SEM, read-out: PI3K Subtype Inhibition Activity PI3Kδ",41.7 ± 2.1 nM
same,IC50,PI3Kδ; read-out: PI3K Subtype Enzyme Inhibition Data IC50 PI3Kδ,41.7 ± 2.1 nM
same,IC50,PI3Kα; [13],69.2 ± 2.2 nM
same,IC50,PI3Kα; read-out: PI3K Subtype Enzyme Inhibition Data IC50 PI3Kα,69.2 ± 2.2 nM
same,MEK1 and PI3K activities in tumor relative to vehicle control,MEK1 and PI3K activities [5],successfully modulated both MEK1 and PI3K activities
same,IC50,PI3Kβ; [14],1480 ± 377 nM
same,IC50,PI3Kβ; [15],1480 ± 377 nM
same,IC50,PI3Kγ [6]; [16],2290 ± 241 nM
same,IC50,PI3Kγ [6]; [17],2290 ± 241 nM
same,MEK1 and PI3K activities in tumor relative to vehicle control,MEK1 and PI3K activities [8],successfully modulated MEK1 and PI3K activities
same,reduction in tumor size over vehicle control,"A375 melanoma tumor; A375, 400 mg/kg daily oral, 35 days post-treatment initiation",> 6 fold
same,lifespan,"A375 melanoma tumor; A375 tumor bearing mice, 400 mg/kg daily oral",significantly increased lifespan
same,side effects (such as loss in body weight),"A375 melanoma tumor; long term dosage, 40 daily oral doses, 400 mg/kg",no detectable side effects
same,MEK1 and PI3K activities in tumor relative to vehicle control,MEK1 and PI3K activities [9],successfully modulated both MEK1 and PI3K activities
